Test results: patent US20100261658A1, “PEPTIDE FOR ACTIVATING AQUAPORIN SYNTHESIS” (priority 2007, published 2010)
Peptide text beside a SMILES is read from it.

Tested on: aquaporin 3
Assay: Expression of aquaporin 3 by immunofluorescence in samples of skin ex vivo
Format: cell-based, human
Conditions: 1% solution of a mother solution at 50 ppm applied topically, 24 hours or 48 hours; in particular upper layers of the epidermis; vs non-treated control
Method: The aim of this study is to determine the influence of the peptide SEQ ID no 5 on the expression of aquaporin 3 in samples of skin ex vivo.
Protocol: Samples of human skin are cultured at the air/liquid interface. A 1% solution of a mother solution at 50 ppm of peptide SEQ ID no 4 is applied topically, then the samples are incubated for 24 hours or 48 hours.
These skin samples are then fixed with formaldehyde then enclosed in paraffin. Sections of 2 to 3 μm are then realized. The immunolabeling is carried out after different stages of washing and incubation of these sections. The immunolabeling is carried out by means of a specific polyclonal antibody of aquaporin 3 (anti-aquaporin 3 (C-18): goat polyclonal, sc-9885, Santa Cruz, dilution 1/100th), then a secondary antibody, coupled to a fluorescent marker (alexa-fluor 488 donkey anti-goat Ig G, Molecular Probes, dilution 1/1000th). The skin sections are then examined by epifluorescence microscope (Nikon Eclipse E600 microscope).

C[C@H](NC(=O)[C@@H]1CCCN1C(=O)[C@@H](N)CC(N)=O)C(=O)N[C@@H](CCCNC(=N)N)C(=O)O [SEQ ID no 4, Asn-Pro-Ala-Arg] (H-NPAR-OH; N-terminus and C-terminus assumed)
aquaporin 3 immunofluorescence: stronger fluorescence
